Structures can show the parent of a compound that is named as a salt.
What was measured:
anesthetized rats = assay: Intra-bladder pressure measurement in anesthetized rat; type: in vivo; details: male rats, urethane anesthesia, after midodorin hydrochloride 3 mg/kg iv, isoproterenol 10 mg/kg iv = 100%
Description: Male rats were anesthetized with urethane. To each rat, tracheal and femoral vein cannulas were inserted. After midline abdominal incision, the ureter on either side was ligated and cut at the proximal end of the ligated portion. After the urethra was ligated, a cannula was inserted into the urinary bladder through the top of the bladder dome. Through a three-way connecter, warmed saline was instilled to adjust the intra-bladder pressure to about 10 cmH2O. The other end of the bladder cannula was connected to a pressure transducer, and intra-bladder pressure was measured. Three mg/kg of midodorin hydrochloride was injected through the femoral vein cannula. Ten minutes after the midodorin hydrochloride injection, tamsulosin hydrochloride (5 mg/kg, iv) or compound 1 (10 mg/kg, iv) was intravenously injected, and the decreasing effect by single administration of each drug was evaluated. Next, 15 minutes after administration, compound 1 (10 mg/kg, iv) was intravenously injected to the animal treated with tamsulosin hydrochloride (5 mg/kg, iv) to evaluate the combinational effect. At the last, 10 mg/kg of isoproterenol was intravenously injected, and the maximum decreasing effect was set as 100% .

[1] = test system: acetic acid-stimulated rats; assay: Micturition interval measurement in acetic acid-stimulated rat; type: in vivo; details: female rats, urethane anesthesia, 0.25% acetic acid instilled into the bladder, 30 minutes after administration
Description: Female rats were anesthetized with urethane. After the midline abdominal was incised, and the ureter on either side was ligated and cut, the renal end was kept open. A cannula was inserted into the urinary bladder through the top of the bladder dome and connected to a three-way connecter to establish routes for the intra-bladder pressure measurement and instillation into the bladder. The other end of the bladder cannula was connected to a pressure transducer, and intra-bladder pressure was measured. Saline was continuously instilled into the bladder (3.6 mL/hr) . […] After stable micturition intervals were obtained, silodosin (0.03 mg/kg), (−)-2-[4-[2-[[(1S, 2R)-2-hydroxy-2-(4-hydroxyphenyl)-1-methylethyl]amino]ethyl]-2,5-dimethylphenoxy] acetic acid (hereinafter referred to as “compound 2”) (1 mg/kg) or both of silodosin (0.03 mg/kg) and compound 2 (1 mg/kg) were injected through a femoral venous cannula respectively, and time from when a micturition occurred till when the next micturition was induced (micturition interval) was measured. Mean micturition intervals for 2 times before each drug administration and for all micturition which occurred in 30 minutes after the drug administration were calculated, and the change to the mean value before administration was evaluated. […]

CCOC(=O)COc1cc(C)c(CCN[C@@H](C)[C@H](O)c2ccc(O)cc2)cc1C [compound 1, ethyl (−)-2-[4-[2-[[(1S, 2R) -2-hydroxy-2-(4-hydroxyphenyl)1-methylethyl]amino]ethyl]-2,5-dimethyl-phenoxy]acetate]
effect decreasing the intra-bladder pressure (percentage of the maximum decreasing effect by isoproterenol) (anesthetized rats; compound 1 10 mg/kg iv alone): 37%

Cc1cc(OCC(=O)O)c(C)cc1CCN[C@@H](C)[C@H](O)c1ccc(O)cc1 [compound 2, (−)-2-[4-[2-[[(1S, 2R)-2-hydroxy-2-(4-hydroxyphenyl)-1-methylethyl]amino]ethyl]-2,5-dimethylphenoxy] acetic acid]
change in the micturition interval (percentage of the mean value before administration) ([1]; compound 2 1 mg/kg iv alone): 116.3%

C[C@H](Cc1cc2c(c(C(N)=O)c1)N(CCCO)CC2)NCCOc1ccccc1OCC(F)(F)F [silodosin]
change in the micturition interval (percentage of the mean value before administration) ([1]; silodosin 0.03 mg/kg iv alone): 115.2%

CCOc1ccccc1OCCN[C@H](C)Cc1ccc(OC)c(S(N)(=O)=O)c1 [tamsulosin hydrochloride]
effect decreasing the intra-bladder pressure (percentage of the maximum decreasing effect by isoproterenol) (anesthetized rats; tamsulosin hydrochloride 5 mg/kg iv alone): 26%

Source: patent US20080242674A1, “Medicine For Prevention or Treatment of Frequent Urination or Urinary Incontinence” (priority 2004, published 2008)
